The values below come from US10954252B1, “Inhibitors of human immunodeficiency virus replication” (ViiV HEALTHCARE UK (NO.5) LIMITED, priority 2017, dated 2021).

Each structure is given as a SMILES string.

Data set [1] deals with recombinant NL4-3 virus (nef section replaced with Renilla luciferase gene) in MT-2 cells. Kind of data set: HIV cell culture assay (antiviral activity, luciferase readout). In kind it is cell-based. Conditions: MT-2 cells infected for 4-5 days with recombinant NL4-3 luciferase virus. The gist of the method: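 Serially diluted compounds were present throughout a 4-5 day infection of MT-2 cells by recombinant NL4-3 whose nef region partly encodes Renilla luciferase. Antiviral activity was taken from live-cell luciferase signal, with the 50% effective concentration fitted by the exponential median effect equation.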

Another data set has as its system uninfected MT2 cells. The data set can be described thus: Compound cytotoxicity, XTT-based colorimetric assay. In kind it is cell-based. In outline:
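XTT colorimetric read-out on day 4 gave CC50 values, using MT2 cells left uninfected but otherwise handled as in the antiviral assay.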
For orientation: Tetrazolium assays rely on reduction of a dye to a coloured formazan, in cell work by metabolically active cells.

What is called EC50 is the midpoint of the concentration-response curve. One may read the CC50 as the concentration at which the toxic effect on the cells reaches its halfway point. With `Cn1nc(NS(C)(=O)=O)c2c(Cl)ccc(-c3c(C(Cc4cc(F)cc(F)c4)NC(=O)Cn4nc(C(F)F)c5c4C(F)(F)[C@@H]4C[C@H]54)ncc4[nH]cnc34)c21` (single isomer, unassigned) [Example 7.4], the EC50 in data set [1] (Table 1) was found to be 300 nM. Further, the CC50 with uninfected MT2 cells (Table 1, day 4, XTT) is over 10000 nM.

With `COc1cccc2c(=O)n(-c3ccc(Cl)c4c(NS(C)(=O)=O)nn(C)c34)c([C@H](Cc3cc(F)cc(F)c3)NC(=O)Cn3nc(C(F)F)c4c3C(F)(F)[C@@H]3C[C@H]43)nc12` (single isomer, unassigned) [Example 104], in data set [1] (Renilla, NL43, Table 1a), the EC50 is 0.064 nM. In the data set with uninfected MT2 cells (Table 1a, day 4, XTT), this compound returned a CC50 of over 1000 nM.

With `Cn1nc(NS(C)(=O)=O)c2c(Cl)ccc(-c3cc4ccccc4nc3C(Cc3cc(F)cc(F)c3)NC(=O)Cn3nc(C(F)F)c4c3C(F)(F)[C@@H]3C[C@H]43)c21` (single isomer, unassigned) [Example 8.2], in data set [1] (Table 1), the EC50 is 180 nM. This compound also came in with a CC50 in the data set on uninfected MT2 cells (Table 1, day 4, XTT) of over 10000 nM.

In the case of `COc1cc(OC)c2c(=O)n(-c3ccc(Cl)c4c(NS(C)(=O)=O)nn(C)c34)c([C@H](Cc3cc(F)cc(F)c3)NC(=O)Cn3nc(C(F)F)c4c3C(F)(F)[C@@H]3C[C@H]43)nc2c1` (single isomer, unassigned) [Example 182], the half-maximal effective concentration (EC50) in data set [1] (Table 1a) turned out to be 0.061 nM. The CC50 in the data set with uninfected MT2 cells (Table 1a, day 4, XTT) is over 1000 nM.

With `COc1cc(F)c2c(=O)n(-c3ccc(Cl)c4c(NS(C)(=O)=O)nn(C)c34)c([C@H](Cc3cc(F)cc(F)c3)NC(=O)Cn3nc(C(F)F)c4c3C(F)(F)[C@@H]3C[C@H]43)nc2c1` (single isomer, unassigned) [Example 187], in data set [1] (Table 1a), the EC50 is 178 nM. For the same compound, the CC50 in the data set with uninfected MT2 cells (Table 1a, day 4, XTT) is over 1000 nM.

As for `Cn1nc(NS(C)(=O)=O)c2c(Cl)ccc(-n3c([C@H](Cc4cc(F)cc(F)c4)NC(=O)Cn4nc(C(F)F)c5c4C(F)(F)[C@@H]4C[C@H]54)nc4c(F)ccc(F)c4c3=O)c21` (single isomer, unassigned) [Example 148], the EC50 in data set [1] (Table 1a) worked out at 0.13 nM. This compound also yielded a CC50 in the data set on uninfected MT2 cells (Table 1a, day 4, XTT) of over 1000 nM.

On to `Cc1cccc2nc([C@H](Cc3cc(F)cc(F)c3)NC(=O)Cn3nc(C(F)F)c4c3C(F)(F)[C@@H]3C[C@H]43)n(-c3ccc(Cl)c4c(NS(C)(=O)=O)nn(C)c34)c(=O)c12` (single isomer, unassigned) [Example 126], for which the EC50 in data set [1] (Table 1a) was 0.054 nM. Moreover, the CC50 in the data set with uninfected MT2 cells (Table 1a, day 4, XTT) was over 1000 nM.

For the compound `Cn1nc(NS(C)(=O)=O)c2c(Cl)ccc(-c3cc4[nH]cnc4nc3C(Cc3cc(F)cc(F)c3)NC(=O)Cn3nc(C(F)F)c4c3C(F)(F)[C@@H]3C[C@H]43)c21` (single isomer, unassigned) [Example 4.2], in data set [1] (Table 1), the EC50 turned out to be 1 nM. For the same compound, the CC50 with uninfected MT2 cells (Table 1, day 4, XTT) was over 10000 nM.

Turning to `Cn1nc(NS(C)(=O)=O)c2c(Cl)ccc(-n3c([C@H](Cc4cc(F)cc(F)c4)NC(=O)Cn4nc(C(F)F)c5c4CCC5)nc4c(F)cc(F)cc4c3=O)c21` (single isomer, unassigned) [Example 100], the EC50 in data set [1] (Table 1a) was determined as 0.033 nM. The compound further returned a CC50 in the data set on uninfected MT2 cells (Table 1a, day 4, XTT) of over 1000 nM.

Consider `Cn1nc(NS(C)(=O)=O)c2c(Cl)ccc(-n3c([C@H](Cc4cc(F)cc(F)c4)NC(=O)Cn4ccc(C5CC5)n4)nc4cc(C(F)(F)F)ccc4c3=O)c21` (single isomer, unassigned) [Example 151], for which, in data set [1] (Renilla, NL43, Table 1a), the EC50 stood at 0.74 nM. Besides, in the data set on uninfected MT2 cells (Table 1a, day 4, XTT), the CC50 is over 1000 nM.

Turning to `O=C(Cn1nc(C(F)F)c2c1C(F)(F)[C@@H]1C[C@H]21)NC(Cc1cc(F)cc(F)c1)c1nc2ncsc2cc1-c1ccc2scnc2c1` (single isomer, unassigned) [Example 1.2], the concentration for a half-maximal effect (EC50) in data set [1] (Table 1) is 2850 nM. Further, in the data set with uninfected MT2 cells (Table 1, day 4, XTT), the 50% cytotoxic concentration (CC50) is over 33300 nM.

In the case of `O=C(Cn1nc(C(F)F)c2c1C(F)(F)[C@@H]1C[C@H]21)NC(Cc1cc(F)cc(F)c1)c1ncc2nc[nH]c2c1-c1ccc2scnc2c1` (single isomer, unassigned) [Example 7.2], in data set [1] (Table 1), the EC50 came to 9 nM. This compound also returned a CC50 with uninfected MT2 cells (Table 1, day 4, XTT) of 17500 nM.

For the compound `Cn1nc(NS(C)(=O)=O)c2c(Cl)ccc(-n3c([C@H](Cc4cc(F)cc(F)c4)NC(=O)Cn4nc(C(F)F)c5c4C(F)(F)[C@@H]4C[C@H]54)nc4cc(Cl)ccc4c3=O)c21` (mixture of isomers) [Example 168, N—((S)-1-(7-chloro-3-(4-chloro-1-methyl-3-(methylsulfonamido)-1H-indazol-7-yl)-4-oxo-3,4-dihydroquinazolin-2-yl)-2-(3,5-difluorophenyl)ethyl)-2-((3bS,4aR)-3-(difluoromethyl)-5,5-difluoro-3b,4,4a,5-tetrahydro-1H-cyclopropa[3,4]cyclopenta[1,2-c]pyrazol-1-yl)acetamide], the EC50 in data set [1] (Table 1a) was 0.058 nM. In the data set on uninfected MT2 cells (Table 1a, day 4, XTT), this compound gave a CC50 of over 1000 nM.

On to `O=C(Cc1c[nH]c2ccc(O)cc12)NC(Cc1cc(F)cc(F)c1)c1nc2cn[nH]c2cc1-c1ccc2scnc2c1` (single isomer, unassigned) [Example 3.4, N-(1-(6-(benzo[d]thiazol-5-yl)-1H-pyrazolo[4,3-b]pyridin-5-yl)-2-(3,5-difluorophenyl)ethyl)-2-(5-hydroxy-1H-indol-3-yl)acetamide], for which, in data set [1] (Table 1), the EC50 turned out to be 470 nM. It took 83900 nM to reach half-maximal cytotoxicity in the data set with uninfected MT2 cells (Table 1, day 4, XTT) (CC50).

`Cn1nc(NS(C)(=O)=O)c2c(Cl)ccc(-n3c([C@H](Cc4cc(F)cc(F)c4)NC(=O)Cn4ccc(C(F)(F)F)n4)nc4ccc(OC(F)(F)F)cc4c3=O)c21` (single isomer, unassigned) [Example 144]: in data set [1] (Table 1a), the EC50 amounted to 8.08 nM. This compound also returned a CC50 with uninfected MT2 cells (Table 1a, day 4, XTT) of over 1000 nM.

As to `Cn1nc(NS(C)(=O)=O)c2c(Cl)ccc(-n3c([C@H](Cc4cc(F)cc(F)c4)NC(=O)Cn4nc(C(F)F)c5c4C(F)(F)[C@@H]4C[C@H]54)nc4cc(C5CC5)ccc4c3=O)c21` (mixture of isomers) [Example 198, N—((S)-1-(3-(4-chloro-1-methyl-3-(methylsulfonamido)-1H-indazol-7-yl)-7-cyclopropyl-4-oxo-3,4-dihydroquinazolin-2-yl)-2-(3,5-difluorophenyl)ethyl)-2-((3bS,4aR)-3-(difluoromethyl)-5,5-difluoro-3b,4,4a,5-tetrahydro-1H-cyclopropa[3,4]cyclopenta[1,2-c]pyrazol-1-yl)acetamide], the EC50 in data set [1] (Table 1a) turned out to be 0.15 nM. The compound also came in with a CC50 with uninfected MT2 cells (Table 1a, day 4, XTT) of over 1000 nM.

On to `Cn1nc(NS(C)(=O)=O)c2c(Cl)ccc(-n3c([C@H](Cc4cc(F)cc(F)c4)NC(=O)Cn4ccc(C5CC5)n4)nc4cccc(F)c4c3=O)c21` (single isomer, unassigned) [Example 184], for which the EC50 in data set [1] (Table 1a) turned out to be 0.35 nM. In addition, in the data set on uninfected MT2 cells (Table 1a, day 4, XTT), the CC50 is over 1000 nM.

In the case of `Cn1nc(NS(C)(=O)=O)c2c(Cl)ccc(-n3c([C@H](Cc4cc(F)cc(F)c4)NC(=O)Cn4nc(C(F)F)c5c4C(F)(F)[C@@H]4C[C@H]54)nc4cccc(C(F)(F)F)c4c3=O)c21` (single isomer, unassigned) [Example 128], the EC50 in data set [1] (Table 1a) turned out to be 0.62 nM. In addition, the CC50 in the data set on uninfected MT2 cells (Table 1a, day 4, XTT) was over 1000 nM.

As for `Cn1nc(NS(C)(=O)=O)c2c(Cl)ccc(-c3cc4cn[nH]c4nc3C(Cc3cc(F)cc(F)c3)NC(=O)Cn3nc(C(F)F)c4c3C(F)(F)[C@@H]3C[C@H]43)c21` (single isomer, unassigned) [Example 6.2], in data set [1] (Table 1), the EC50 worked out at 4.3 nM. The CC50 in the data set on uninfected MT2 cells (Table 1, day 4, XTT) was over 10000 nM.

Take `CC(C)c1ccc(-c2cc3[nH]ccc3nc2[C@H](Cc2cc(F)cc(F)c2)NC(=O)Cn2nc(C(F)F)c3c2C(F)(F)[C@@H]2C[C@H]32)cn1` [Example 82, 2-((3bS,4aR)-3-(difluoromethyl)-5,5-difluoro-3b,4,4a,5-tetrahydro-1H-cyclopropa[3,4]cyclopenta[1,2-c]pyrazol-1-yl)-N—((S)-2-(3,5-difluorophenyl)-1-(6-(6-isopropylpyridin-3-yl)-1H-pyrrolo[3,2-b]pyridin-5-yl)ethyl)acetamide]: the EC50 in data set [1] (Renilla, NL43, Table 1a) is 3.81 nM. The compound also registered a CC50 in the data set on uninfected MT2 cells (Table 1a, day 4, XTT) of 6310 nM.

For `O=C(Cn1nc(C(F)F)c2c1C(F)(F)[C@@H]1C[C@H]21)N[C@H](Cc1cc(F)cc(F)c1)c1nc2cn[nH]c2cc1-c1ccc2scnc2c1` (single isomer, unassigned) [Example 3.2], in data set [1] (Table 1), the EC50 stood at 960 nM. Further, in the data set with uninfected MT2 cells (Table 1, day 4, XTT), the CC50 was found to be 12700 nM.

Turning to `Cn1nc(NS(C)(=O)=O)c2c(Cl)ccc(-c3cc4scnc4nc3C(Cc3cc(F)cc(F)c3)NC(=O)Cn3nc(C(F)F)c4c3C(F)(F)[C@@H]3C[C@H]43)c21` (single isomer, unassigned) [Example 1.5], the EC50 in data set [1] (Table 1) came out at 1150 nM. In addition, in the data set with uninfected MT2 cells (Table 1, day 4, XTT), the CC50 is over 10000 nM.

In the case of `Cn1nc(NS(C)(=O)=O)c2c(Cl)ccc(-c3cc4scnc4nc3C(Cc3cc(F)cc(F)c3)NC(=O)Cn3nc(C(F)F)c4c3C(F)(F)[C@@H]3C[C@H]43)c21` (single isomer, unassigned) [Example 1.3], the EC50 in data set [1] (Table 1) is 0.3 nM. Besides, the CC50 in the data set with uninfected MT2 cells (Table 1, day 4, XTT) was over 10000 nM.

As to `Cn1nc(NS(C)(=O)=O)c2c(Cl)ccc(-c3c(C(Cc4cc(F)cc(F)c4)NC(=O)Cn4nc(C(F)F)c5c4C(F)(F)[C@@H]4C[C@H]54)ncc4[nH]cnc34)c21` (single isomer, unassigned) [Example 7.6], the EC50 in data set [1] (Table 1) came to 8.1 nM. In the data set with uninfected MT2 cells (Table 1, day 4, XTT), this compound showed a CC50 of over 10000 nM.

With `Cc1nc2nc(C(Cc3cc(F)cc(F)c3)NC(=O)Cn3nc(C(F)F)c4c3C(F)(F)[C@@H]3C[C@H]43)c(-c3ccc(Cl)c4c(NS(C)(=O)=O)nn(C)c34)cc2s1` (single isomer, unassigned) [Example 2.2], in data set [1] (Table 1), the EC50 worked out at 1150 nM. Further, in the data set with uninfected MT2 cells (Table 1, day 4, XTT), the CC50 is over 10000 nM.

For `CS(=O)(=O)Nc1nn(CC(F)F)c2c(-c3cc4[nH]ncc4nc3[C@H](Cc3cc(F)cc(F)c3)NC(=O)Cn3nc(C(F)F)c4c3C(F)(F)[C@@H]3C[C@H]43)ccc(Cl)c12` (single isomer, unassigned) [Example 93], in data set [1] (Table 1a), the EC50 was found to be 0.099 nM. The CC50 in the data set with uninfected MT2 cells (Table 1a, day 4, XTT) was over 10000 nM.

For `Cn1nc(NS(C)(=O)=O)c2c(Cl)ccc(-n3c([C@H](Cc4cc(F)cc(F)c4)NC(=O)Cn4nc(C(F)F)c5c4C(F)(F)[C@@H]4C[C@H]54)nc4ccc(F)c(Cl)c4c3=O)c21` (single isomer, unassigned) [Example 161], the EC50 in data set [1] (Table 1a) was 28.9 nM. In the data set on uninfected MT2 cells (Table 1a, day 4, XTT), this compound displayed a CC50 of over 1000 nM.
